Results from patent publication US11542492B2 (Celgene CAR LLC, priority 2009, dated 2023).

Experiments:
[1] = molecular target: T1, HCV NS3 protease WT 1b (Hepatitis C virus genotype 1b, UniProt P26663); assay: MALDI MS of intact HCV protease 1b WT incubated with compound; type: binding
T1 construct: The single-chain proteolytic domain (NS4A21-32-GSGS-NS33-631) was cloned into pET-14b; His tag (own knowledge of vector pET-14b); made in house; host or cells: Escherichia coli BL21
Procedure: Intact HCV (protease) 1bWT was incubated for 1 hr at a 10× fold excess of XVI-26 to protein. 3 ul aliquots of the samples were diluted with 10 ul of 0.1% TFA prior to micro C4 ZipTipping directly onto the MALDI target using Sinapinic acid as the desorption matrix (10 mg/mL in 0.1% TFA:Acetonitrile 50:50). […] Due to likely protein misfolding during protein purification, a small portion of the misfolded protein was not modified.
In order to determine whether the modification of the protein occurred at lysine, the pH from the above experiment was increased from 7.4 to 10.0. Because the compound lysine adduct would be an amide any increase in pH would have minimal effect on the modified protein. If however, the modification occurred at cysteine the resultant thioester bond would be unstable and the compound would hydrolyze off the protein.
Intact HCV (protease) 1bWT, C159S, and C159S/K136A were incubated for 1 hr at a 10× fold excess of XVI-26 to protein. 3 μl aliquots of the samples were diluted with 10 μl of 0.1% TFA prior to micro C4 ZipTipping directly onto the MALDI target using Sinapinic acid as the desorption matrix (10 mg/mL in 0.1% TFA:Acetonitrile 50:50).
Intact HCV (protease) WT1b was incubated for 1 hr at a 10× fold excess of XVI-1 (mw=782.87) to protein. 3 μl aliquots of the samples were diluted with 10 μl of 0.1% TFA prior to micro C4 ZipTipping directly onto the MALDI target using Sinapinic acid as the desorption matrix (10 mg/mL in 0.1% TFA:Acetonitrile 50:50). […] Due to some protein misfolding during the purification of the protein, the unfolded portion of the protein can not react with XVI-1.

[2] = molecular target: T2, HCV NS3/4A 1b protease enzyme (wild type) (Hepatitis C virus genotype 1b, UniProt P26663); assay: HCV protease FRET assay (IC50_APP), wild type NS3/4A 1b; type: biochemical
T2 construct: 10× stocks of NS3/4A protease enzyme from Bioenza (Mountain View, Calif.); purchased Bioenza
Procedure: HCV Protease FRET Assay for WT and Mutated NS3/4A 1b Enzymes (IC50_APP).
The following protocol was used to generate “apparent” IC50 (IC50_APP) values as depicted in Table 6, below. Without wishing to be bound by any particular theory, it is believed that IC50_APP, contrasted with IC50 values, may provide a more useful indication of time-dependent inhibition, and are thus more representative of binding affinity. […] 5 μL of each enzyme were added to Corning (#3575) 384-well, black, microtiter plates (Corning, N.Y.) after spotting a 0.5 μL volume of 50% DMSO and serially diluted compounds prepared in 50% DMSO. Protease reactions were immediately started after enzyme addition with the addition of 45 μL of the FRET substrate and monitored for 60-90 minutes at λex485/λem520 in a Synergy plate reader from BioTek (Winooski, Vt.). At the conclusion of each assay, progress curves from each well were examined for linear reaction kinetics and fit statistics (R^2, 95% confidence intervals, absolute sum of squares). Initial velocity (0 minutes to 15+ minutes) from each reaction was determined from the slope of a plot of relative fluorescence units vs time (minutes) and then plotted against inhibitor concentration as a percent of the no inhibitor and no enzyme controls to estimate apparent IC50 from log [Inhibitor] vs Response. (Variable Slope model in GraphPad Prism from GraphPad Software (San Diego, Calif.).)

| Compound | conversion of HCV NS3 WT1b ([1]; 1 hr, 10× fold excess) | positive mass shift of HCV 1bWT ([1]; 1 hr, 10× fold excess of compound to protein) | MS_HCVNS3_INTACT_NS3 WT 1b 1 HR [1] | IC50 [2] |
| --- | --- | --- | --- | --- |
| C=C[C@@H]1C[C@]1(NC(=O)[C@@H]1C[C@@H](Oc2nccc3cc(OC)ccc23)CN1C(=O)[C@H](CCC(=O)N1CCC1=O)NC(=O)OC(C)(C)C)C(=O)NS(=O)(=O)C1CC1 [XVI-1, tert-butyl (S)-1-((2S,4R)-2-((1R,2S)-1-(cyclopropylsulfonylcarbamoyl)-2-vinylcyclopropylcarbamoyl)-4-(6-methoxyisoquinolin-1-yloxy)pyrrolidin-1-yl)-1,5-dioxo-5-(2-oxoazetidin-1-yl)pentan-2-ylcarbamate] | ~72% | 755 Da | G (>70% modification) | < 1 nM |
| C=C[C@@H]1C[C@]1(NC(=O)[C@@H]1CC(Oc2nccc3cc(OC)ccc23)CN1C(=O)[C@H](CCC(=O)N1CC[C@H]2C[C@@H]1C(=O)O2)NC(=O)OC(C)(C)C)C(=O)NS(=O)(=O)C1CC1 (some centres unmarked) [XVI-2] |  |  | K (≤30% modification) | < 1 nM |
| C=C[C@@H]1C[C@]1(NC(=O)[C@@H]1CC(Oc2nccc3cc(OC)ccc23)CN1C(=O)[C@H](CCC(=O)N1C[C@@H]2CC[C@H]1C(=O)O2)NC(=O)OC(C)(C)C)C(=O)NS(=O)(=O)C1CC1 (stereo partly drawn) [XVI-3, tert-butyl(2S)-1-((2S)-2-((1R,2S)-1-(cyclopropylsulfonylcarbamoyl)-2-vinylcyclopropylcarbamoyl)-4-(6-methoxyisoquinolin-1-yloxy)pyrrolidin-1-yl)-1,5-dioxo-5-((1S,4S)-3-oxo-2-oxa-5-azabicyclo[2.2.2]octan-5-yl)pentan-2-ylcarbamate] |  |  | K (≤30% modification) | < 1 nM |
| C=C[C@@H]1C[C@]1(NC(=O)[C@@H]1C[C@@H](OC(=O)N2Cc3cccc(F)c3C2)CN1C(=O)[C@H](CNC(=O)c1cc(C(C)=O)oc1C)NC(=O)OC(C)(C)C)C(=O)NS(=O)(=O)C1CC1 [XVI-4] |  |  | K (≤30% modification) | 100 to 1000 nM |
| C=C[C@@H]1C[C@]1(NC(=O)[C@@H]1C[C@@H](OC(=O)N2Cc3cccc(F)c3C2)CN1C(=O)[C@H](CNC(=O)c1coc(C(C)=O)c1)NC(=O)OC(C)(C)C)C(=O)NS(=O)(=O)C1CC1 [XVI-5] |  |  | K (≤30% modification) | 100 to 1000 nM |
| C=C[C@@H]1C[C@]1(NC(=O)[C@@H]1CC(Oc2nccc3cc(OC)ccc23)CN1C(=O)[C@H](CC(=O)N1C[C@H]2C[C@@H]1C(=O)O2)NC(=O)OC(C)(C)C)C(=O)NS(=O)(=O)C1CC1 (some centres unmarked) [XVI-6] |  |  | H (>50% and ≤70% modification) | 1 to 10 nM |
| C=C[C@@H]1C[C@]1(NC(=O)[C@@H]1CC(Oc2nccc3cc(OC)ccc23)CN1C(=O)[C@H](CC(=O)N1C[C@@H]2C[C@H]1C(=O)O2)NC(=O)OC(C)(C)C)C(=O)NS(=O)(=O)C1CC1 (some centres unmarked) [XVI-7] |  |  | H (>50% and ≤70% modification) | 1 to 10 nM |
| C=C[C@@H]1C[C@]1(NC(=O)[C@@H]1CC(Oc2nccc3cc(OC)ccc23)CN1C(=O)[C@H](CCC(=O)N1C[C@H]2C[C@@H]1C(=O)O2)NC(=O)OC(C)(C)C)C(=O)NS(=O)(=O)C1CC1 (some centres unmarked) [XVI-8] |  |  | G (>70% modification) | < 1 nM |
| C=C[C@@H]1C[C@]1(NC(=O)[C@@H]1CC(Oc2nccc3cc(OC)ccc23)CN1C(=O)[C@H](CCC(=O)N1C[C@@H]2C[C@H]1C(=O)O2)NC(=O)OC(C)(C)C)C(=O)NS(=O)(=O)C1CC1 (stereo partly drawn) [XVI-9, tert-butyl(2S)-1-((2S)-2-((1R,2S)-1-(cyclopropylsulfonylcarbamoyl)-2-vinylcyclopropylcarbamoyl)-4-(6-methoxyisoquinolin-1-yloxy)pyrrolidin-1-yl)-1,5-dioxo-5-((1S,4S)-3-oxo-2-oxa-5-azabicyclo[2.2.1]heptan-5-yl)pentan-2-ylcarbamate] |  |  | H (>50% and ≤70% modification) | < 1 nM |
| C=C[C@@H]1C[C@]1(NC(=O)[C@@H]1CC(OC(=O)N2Cc3cccc(F)c3C2)CN1C(=O)[C@H](CC(=O)N1C[C@H]2C[C@@H]1C(=O)O2)NC(=O)OC(C)(C)C)C(=O)NS(=O)(=O)C1CC1 (stereo partly drawn) [XVI-14, (5S)-1-((S)-2-(tert-butoxycarbonylamino)-4-oxo-4-((1R,4R)-3-oxo-2-oxa-5-azabicyclo[2.2.1]heptan-5-yl)butanoyl)-5-((1R,2S)-1-(cyclopropylsulfonylcarbamoyl)-2-vinylcyclopropylcarbamoyl)pyrrolidin-3-yl 4-fluoroisoindoline-2-carboxylate] |  |  | H (>50% and ≤70% modification) | < 1 nM |
| C=C[C@@H]1C[C@]1(NC(=O)[C@@H]1CC(OC(=O)N2Cc3cccc(F)c3C2)CN1C(=O)[C@H](CC(=O)N1C[C@@H]2C[C@H]1C(=O)O2)NC(=O)OC(C)(C)C)C(=O)NS(=O)(=O)C1CC1 (stereo partly drawn) [XVI-15, (5S)-1-((S)-2-(tert-butoxycarbonylamino)-4-oxo-4-((1S,4S)-3-oxo-2-oxa-5-azabicyclo[2.2.1]heptan-5-yl)butanoyl)-5-((1R,2S)-1-(cyclopropylsulfonylcarbamoyl)-2-vinylcyclopropylcarbamoyl)pyrrolidin-3-yl 4-fluoroisoindoline-2-carboxylate] |  |  | H (>50% and ≤70% modification) | < 1 nM |
| C=C[C@@H]1C[C@]1(NC(=O)[C@@H]1CC(OC(=O)N2Cc3cccc(F)c3C2)CN1C(=O)[C@H](CCC(=O)N1C[C@H]2C[C@@H]1C(=O)O2)NC(=O)OC(C)(C)C)C(=O)NS(=O)(=O)C1CC1 (stereo partly drawn) [XVI-16, (5S)-1-((S)-2-(tert-butoxycarbonylamino)-5-oxo-5-((1R,4R)-3-oxo-2-oxa-5-azabicyclo[2.2.1]heptan-5-yl)pentanoyl)-5-((1R,2S)-1-(cyclopropylsulfonylcarbamoyl)-2-vinylcyclopropylcarbamoyl)pyrrolidin-3-yl 4-fluoroisoindoline-2-carboxylate] |  |  | H (>50% and ≤70% modification) | < 1 nM |
| C=C[C@@H]1C[C@]1(NC(=O)[C@@H]1CC(OC(=O)N2Cc3cccc(F)c3C2)CN1C(=O)[C@H](CCC(=O)N1C[C@@H]2C[C@H]1C(=O)O2)NC(=O)OC(C)(C)C)C(=O)NS(=O)(=O)C1CC1 (stereo partly drawn) [XVI-17, (5S)-1-((S)-2-(tert-butoxycarbonylamino)-5-oxo-5-((1S,4S)-3-oxo-2-oxa-5-azabicyclo[2.2.1]heptan-5-yl)pentanoyl)-5-((1R,2S)-1-(cyclopropylsulfonylcarbamoyl)-2-vinylcyclopropylcarbamoyl)pyrrolidin-3-yl 4-fluoroisoindoline-2-carboxylate] |  |  | G (>70% modification) | < 1 nM |
| C=C[C@@H]1C[C@]1(NC(=O)[C@@H]1CC(Oc2cc(-c3ccccc3)nc3cc(OC)ccc23)CN1C(=O)[C@H](CNC(=O)[C@@H]1CCC(=O)O1)NC(=O)OC(C)(C)C)C(=O)NS(=O)(=O)C1CC1 (stereo partly drawn) [XVI-24, tert-butyl(2S)-1-((2S)-2-((1R,2S)-1-(cyclopropylsulfonylcarbamoyl)-2-vinylcyclopropylcarbamoyl)-4-(7-methoxy-2-phenylquinolin-4-yloxy)pyrrolidin-1-yl)-1-oxo-3-((S)-5-oxotetrahydrofuran-2-carboxamido)propan-2-ylcarbamate] |  |  | K (≤30% modification) | 1 to 10 nM |
| C=C[C@@H]1C[C@]1(NC(=O)[C@@H]1CC(OC(=O)N2Cc3cccc(F)c3C2)CN1C(=O)[C@H](COC(=O)N[C@@H]1C(=O)O[C@@H]1C)NC(=O)OC(C)(C)C)C(=O)NS(=O)(=O)C1CC1 (stereo partly drawn) [XVI-25, (5S)-1-((S)-2-(tert-butoxycarbonylamino)-3-((2R,3S)-2-methyl-4-oxooxetan-3-ylcarbamoyloxy)propanoyl)-5-((1R,2S)-1-(cyclopropylsulfonylcarbamoyl)-2-vinylcyclopropylcarbamoyl)pyrrolidin-3-yl 4-fluoroisoindoline-2-carboxylate] |  |  | K (≤30% modification) | < 1 nM |
